Assay results from PubChem BioAssay AID1963847 (Molecular Pharmacology Branch, DTP, NCI, 2024).
Values joined by “and” are separate entries in the source; they are usually repeats but may differ in a detail not shown here. Identical values can stand only once.

Tested on: 415267-285-R-J2-PDC complex spheroid viability
Test: Anticancer human tumor 415267-285-R-J2-PDC patient-derived breast carcinoma cell line growth inhibition [POLQ]
Conditions: for viability, T/C: stronger effect = lower value
Description: Multicellular complex tumor spheroid response to Polymerase (POL) inhibitors (novobiocin, ART-558, RP6685) in combination with a variety of drugs and investigational agents in selected tumor cell lines
The POL inhibitors (novobiocin, ART-558, and RP6685) were evaluated both individually and in combination with standard of care and investigational anticancer small molecules within a complex spheroid model of solid tumors. . Complex spheroids include a stromal component modeled by human endothelial cells (HUVEC) and fibroblasts modeled by human mesenchymal stem cells (MSCs). The concentration ranges selected for each drug and investigational agent were based upon clinically achievable concentrations if the clinical Cmax of the agent was known.
Compounds. The drugs and investigational agents: novobiocin (NSC847541), ART-558 (NSC835418), RP-6685 (NSC848927), peposertib (NSC802822), ceralasertib (NSC780249), elimusertib (NSC800525), camonsertib (NSC841442), AZD-1390 (NSC803789), olaparib (NSC753686), talazoparib (NSC767125), rucaparib (NSC756644), sotorasib (NSC818433), MRTX-1133 (NSC836407), SN-38 (NSC673596), topotecan (NSC609699), epotoside (NSC141540), doxorubicin (NSC123127), gemcitabine (NSC613327), 5-fluorouracil (NSC19893), paclitaxel (NSC125973), vemurafenib (NSC761431), MSA-2 (NSC828583), SN-011 (NSC837082), adavosertib (NSC754352), prexasertib (NSC758257), carboplatin (NSC241240) and oxaliplatin (NSC266046), were obtained from the National Cancer Institute (NCI) Developmental Therapeutics Program Chemical Repository (21). The FDA-approved anticancer drug set is available from the Developmental Therapeutics Program at https://dtp.cancer.gov/organization/dscb/obtaining/. […] The stock solutions were prepared in dimethyl sulfoxide (DMSO, Sigma-Aldrich, St. Louis, MO, cat. D2650), except for the platinum compounds which were prepared in saline (Quality Biological, Gaithersburg, MD, cat. 114-055-101), at 800-fold the tested concentration and stored at -70 degrees C prior to their use. All drugs and investigational agents were tested over a range starting from a high concentration at or near the clinical Cmax and decreasing in half-log increments. If the clinical Cmax for an agent had not been determined, the highest concentration tested was 10 microM, except for SN-38, which was tested at a high concentration of 1 microM.
Cell Culture. All cells were maintained in an incubator at 37 degrees C and 5% CO2 with 95% humidity. The PDC lines were cultured according to standard operating procedures established by the NCI PDMR (https://pdmr.cancer.gov). Table 3 of the manuscript, lists the cell lines along with the number of the three cell types plated to form the mct-spheroids and media for tumor cell growth. After thawing, all PDC lines, except 997537-175-T-J1-PDC and 415267-285-R-J2-PDC, were cultured in Matrigel-coated flasks prepared with a working solution of 1X Ham's F-12 nutrient mix, without supplementation (Thermo Fisher Scientific, cat. 11765054), 100 U/mL penicillin-streptomycin (Thermo Fisher Scientific, cat. 15140122), and 2.5% Matrigel (Corning Inc., Corning, NY, cat. 354248) for the first three passages. The two PDC lines 997537-175-T-J1-PDC and 415267-285-R-J2-PDC were cultured on uncoated flasks. The 857933-349-R-J2-PDC line was cultured in 6C/Colon 1B media containing advanced DMEM/F-12 (Thermo Fisher Scientific, cat. 12634028), 10 mM HEPES (Thermo Fisher Scientific, cat. 15630080), 1X GlutaMAX supplement (Thermo Fisher Scientific, cat. 35050061), 0.1 mg/mL primocin (InvivoGen, San Diego, CA, cat. ant-pm-2), 10% defined fetal bovine serum, heat inactivated (HyClone Laboratories Inc., Logan, UT, cat. SH30070.03HI), 50% L-WRN conditioned media (ATCC, cat. CRL-3276), 1.25 mM N-Acetyl-L-cysteine (Sigma-Aldrich, cat. A9165), 10 mM nicotinamide (Sigma-Aldrich, cat. N0636), 1X B-27 supplement (Thermo Fisher Scientific, cat. 17504044), 1X N-2 supplement (Thermo Fisher Scientific, cat. […]
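Further: spheroids exposed to compounds for one week before readout.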
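Wherever viability, T/C is given: luminescence used as stand-in measure of viable cells; 100% = DMSO vehicle control viability.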

SMILES: COc1ccc([C@@H](O)c2cc(-c3ncnc4cc(N5CCOCC5)ccc34)c(F)cc2Cl)nn1 + Cc1cccc(N(C)C(=O)C2C(O)CCN2c2nc(C)cc(C(F)(F)F)c2C#N)c1
- IC50 (curve of first compound, second compound 0.0316 µM): 7.65 µM
- IC50 (curve of first compound, second compound 0.1 µM): 7.73 µM
- IC50 (curve of first compound, second compound 0.316 µM): 7.44 µM
- IC50 (curve of first compound, second compound 1 µM): 7.62 µM
- IC50 (curve of first compound, second compound 3.16 µM): 7.22 µM
- IC50 (curve of first compound, second compound 10 µM): 4.74 µM
- viability, T/C (second compound 0.0316 µM, first compound 0.0316 µM): 89.5%
- viability, T/C (second compound 0.0316 µM, first compound 0.1 µM): 103%
- viability, T/C (second compound 0.0316 µM, first compound 0.316 µM): 98.9%
- viability, T/C (second compound 0.0316 µM, first compound 1 µM): 102%
- viability, T/C (second compound 0.0316 µM, first compound 3.16 µM): 74%
- viability, T/C (second compound 0.0316 µM, first compound 10 µM): 42.7%
- viability, T/C (second compound 0.1 µM, first compound 0.0316 µM): 93.9%
- viability, T/C (second compound 0.1 µM, first compound 0.1 µM): 102%
- viability, T/C (second compound 0.1 µM, first compound 0.316 µM): 110%
- viability, T/C (second compound 0.1 µM, first compound 1 µM): 91%
- viability, T/C (second compound 0.1 µM, first compound 3.16 µM): 82.1%
- viability, T/C (second compound 0.1 µM, first compound 10 µM): 40.9%
- viability, T/C (second compound 0.316 µM, first compound 0.0316 µM): 99.3%
- viability, T/C (second compound 0.316 µM, first compound 0.1 µM): 102%
- viability, T/C (second compound 0.316 µM, first compound 0.316 µM): 98.5%
- viability, T/C (second compound 0.316 µM, first compound 1 µM): 100%
- viability, T/C (second compound 0.316 µM, first compound 3.16 µM): 81.3%
- viability, T/C (second compound 0.316 µM, first compound 10 µM): 39%
- viability, T/C (second compound 1 µM, first compound 0.0316 µM): 99%
- viability, T/C (second compound 1 µM, first compound 0.1 µM): 91.3%
- viability, T/C (second compound 1 µM, first compound 0.316 µM): 92.7%
- viability, T/C (second compound 1 µM, first compound 1 µM): 93.2%
- viability, T/C (second compound 1 µM, first compound 3.16 µM): 69.4%
- viability, T/C (second compound 1 µM, first compound 10 µM): 44%
- viability, T/C (second compound 3.16 µM, first compound 0.0316 µM): 93.1%
- viability, T/C (second compound 3.16 µM, first compound 0.1 µM): 100%
- viability, T/C (second compound 3.16 µM, first compound 0.316 µM): 98%
- viability, T/C (second compound 3.16 µM, first compound 1 µM): 88.9%
- viability, T/C (second compound 3.16 µM, first compound 3.16 µM): 75.5%
- viability, T/C (second compound 3.16 µM, first compound 10 µM): 39.9%
- viability, T/C (second compound 10 µM, first compound 0.0316 µM): 101%
- viability, T/C (second compound 10 µM, first compound 0.1 µM): 99.3%
- viability, T/C (second compound 10 µM, first compound 0.316 µM): 94.5%
- viability, T/C (second compound 10 µM, first compound 1 µM): 86%
- viability, T/C (second compound 10 µM, first compound 3.16 µM): 59.7%
- viability, T/C (second compound 10 µM, first compound 10 µM): 31.6%

SMILES: COc1ccc([C@@H](O)c2cc(-c3ncnc4cc(N5CCOCC5)ccc34)c(F)cc2Cl)nn1
- viability, T/C (compound 0.0316 µM): 95.9% and 109% and 85.5%
- viability, T/C (compound 0.1 µM): 113% and 97.3% and 88.6%
- viability, T/C (compound 0.316 µM): 95.8% and 98.6% and 91.6%
- viability, T/C (compound 1 µM): 95.5% and 92.4% and 92.3%
- viability, T/C (compound 3.16 µM): 86% and 89.3% and 87.6%
- viability, T/C (compound 10 µM): 40.4% and 53.2% and 40.9%
- IC50 (curve of compound): 7.85 µM and > 10 µM and 7.99 µM
